Experimental data taken from US10035760B2, “Inhibitors of human immunodeficiency virus replication” (priority 2013, dated 2018).
Like-named read-outs stand apart in the source and are kept apart here.

Test system: recombinant NL4-3 virus (Renilla luciferase) in MT-2 cells
Assay: HIV cell culture assay (antiviral activity, luciferase readout in infected MT-2 cells)
Type: cell-based
Details: Renilla
Outline: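 EC50 derived via median-effect equation from luciferase activity in MT-2 cells after 4–5 day infection, compound serially diluted. Virus: recombinant NL4-3 with Renilla luciferase replacing part of nef, made in 293T cells.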

[1] = NL43, read-out: Activity, antiviral activity class, recombinant NL4-3 Renilla luciferase virus in MT-2 cells
[2] = NL43, recombinant NL4-3 Renilla luciferase virus in MT-2 cells

Compound: COC(=O)c1cccc(C[C@H](NC(=O)NS(=O)(=O)c2ccccc2C)C(=O)N(C)c2ccc3c(c2)OCO3)c1 [Example 64, (S)-methyl 3-(3-(benzo[d][1,3]dioxol-5-yl(methyl)amino)-3-oxo-2-(3-(o-tolylsulfonyl)ureido)propyl)benzoate]
- EC50 [1]: 1000 to 10000 nM

Compound: CN(C(=O)[C@H](Cc1ccccc1)NC(=O)NS(=O)(=O)c1ccc([N+](=O)[O-])cc1)c1ccc2c(c1)OCO2 [Example 21, (S)—N-(benzo[d][1,3]dioxol-5-yl)-N-methyl-2-(3-((4-nitrophenyl)sulfonyl)ureido)-3-phenylpropanamide]
- EC50 [1]: 1000 to 10000 nM

Compound: Cc1ccccc1S(=O)(=O)NC(=O)N[C@@H](Cc1ccccc1)C(=O)N(C)c1ccccc1 [Example CA-67, (S)—N-methyl-N, 3-diphenyl-2-(3-(o-tolylsulfonyl)ureido)propanamide]
- EC50 [1]: 100 to 1000 nM
- EC50 [2]: 490 nM

Compound: Cc1ccccc1S(=O)(=O)NC(=O)N[C@@H](Cc1ccccc1C(N)=O)C(=O)N(C)c1ccc2c(c1)OCO2 [Example 66, (S)-2-(3-(benzo[d][1,3]dioxol-5-yl(methyl)amino)-3-oxo-2-(3-(o-tolylsulfonyl)ureido)propyl)benzamide]
- EC50 [2]: > 100000 nM

Compound: CCN(C(=O)[C@H](Cc1ccccc1)NC(=O)NS(=O)(=O)c1ccccc1[N+](=O)[O-])c1ccc(OC)cc1 [Example 113, (S)—N-ethyl-N-(4-methoxyphenyl)-2-(3-((2-nitrophenyl)sulfonyl)ureido)-3-phenylpropanamide]
- EC50 [1]: < 100 nM

Compound: CN(C(=O)[C@H](Cc1ccccc1)NC(=O)NS(=O)(=O)Cc1ccc(Cl)c(Cl)c1)c1ccc2c(c1)OCO2 [Example 102, (S)—N-(benzo[d][1,3]dioxol-5-yl)-2-(3-((3,4-dichlorobenzyl)sulfonyl)ureido)-N-methyl-3-phenylpropanamide]
- EC50 [1]: 100 to 1000 nM

Compound: CN(C(=O)[C@H](Cc1ccccc1)NC(=O)NS(=O)(=O)Cc1ccc(F)cc1)c1ccc2c(c1)OCO2 [Example 110, (S)—N-(benzo[d][1,3]dioxol-5-yl)-2-(3-((4-fluorobenzyl)sulfonyl)ureido)-N-methyl-3-phenylpropanamide]
- EC50 [1]: 100 to 1000 nM
- EC50 [2]: 160 nM

Compound: COc1ccccc1N(C)C(=O)[C@H](Cc1ccccc1)NC(=O)NS(=O)(=O)c1ccccc1C [Example 165, (S)—N-(2-methoxyphenyl)-N-methyl-3-phenyl-2-(3-(o-tolylsulfonyl)ureido)propanamide]
- EC50 [1]: 1000 to 10000 nM

Compound: Cc1ccccc1S(=O)(=O)NC(=O)N[C@@H](Cc1ccccc1)C(=O)N(C)c1ccc2nccnc2c1 [Example CA-75, (S)—N-methyl-3-phenyl-N-(quinoxalin-6-yl)-2-(3-(o-tolylsulfonyl)ureido)propanamide]
- EC50 [1]: 100 to 1000 nM

Compound: Cc1ccccc1S(=O)(=O)NC(=O)N[C@@H](Cc1ccccc1F)C(=O)N(C)c1ccc2c(c1)OCO2 [Example 70, (S)—N-(benzo[d][1,3]dioxol-5-yl)-3-(2-fluorophenyl)-N-methyl-2-(3-(o-tolylsulfonyl)ureido)propanamide]
- EC50 [1]: 100 to 1000 nM

Compound: Cc1nn(C)c(Cl)c1S(=O)(=O)NC(=O)N[C@@H](Cc1ccccc1)C(=O)N(C)c1ccc2c(c1)OCO2 [Example 33, (S)—N-(benzo[d][1,3]dioxol-5-yl)-2-(3-((5-chloro-1,3-dimethyl-1H-pyrazol-4-yl)sulfonyl)ureido)-N-methyl-3-phenylpropanamide]
- EC50 [1]: 100 to 1000 nM
- EC50 [2]: 210 nM

Compound: Cc1ccccc1S(=O)(=O)NC(=O)N[C@@H](Cc1ccccc1)C(=O)N(C)c1ccc(C#N)cc1 [Example CA-97, (S)—N-(4-cyanophenyl)-N-methyl-3-phenyl-2-(3-(o-tolylsulfonyl)ureido)propanamide]
- EC50 [1]: 100 to 1000 nM

Compound: Cc1nc(-c2ccc(CN(C)C(=O)[C@H](Cc3ccccc3)NC(=O)NS(=O)(=O)c3ccccc3)cc2)no1 [Example 97, (S)—N-methyl-N-(4-(5-methyl-1,2,4-oxadiazol-3-yl)benzyl)-3-phenyl-2-(3-(phenylsulfonyl)ureido)propanamide]
- EC50 [1]: 1000 to 10000 nM
